Data on 1 compound can be found in patent publication US20100144736A1, “NOVEL BIPHENYL THIO-UREA DERIVATIVES USEFUL AS POTASSIUM CHANNEL MODULATORS” (NeuroSearch A/S, priority 2006, published 2010).

For the experiment, the target named is T1, BK channels heterologously expressed in Xenopus laevis oocytes (Homo sapiens, UniProt Q12791).
T1 construct: expressed in transfected cells; host or cells: Xenopus laevis oocytes
The experiment is described as follows: BK channel opening activity, two-electrode voltage clamp in Xenopus laevis oocytes. Particulars: Compound added in increasing concentrations, 1, 3 and 10 μM; step from −40 mV to +30 mV; FIG. 1. Format: cell-based. How it is done:
The electrical current through the BK channel is measured conventional two-electrode voltage clamp. BK current is activated by repeated step protocols. In brief, this protocol goes from a resting membrane potential of −40 mV lasting for 5 s to a depolarised step to +30 mV lasting for 1 s. The protocol was repeated continuously.
Having reached a stable current level, Compound 1 was added in increasing concentrations. Between each application compound was washed out until baseline current activity was obtained.
A general note: In two-electrode clamp one electrode senses voltage and the other passes current.

T1 sequence (Q12791 whole entry): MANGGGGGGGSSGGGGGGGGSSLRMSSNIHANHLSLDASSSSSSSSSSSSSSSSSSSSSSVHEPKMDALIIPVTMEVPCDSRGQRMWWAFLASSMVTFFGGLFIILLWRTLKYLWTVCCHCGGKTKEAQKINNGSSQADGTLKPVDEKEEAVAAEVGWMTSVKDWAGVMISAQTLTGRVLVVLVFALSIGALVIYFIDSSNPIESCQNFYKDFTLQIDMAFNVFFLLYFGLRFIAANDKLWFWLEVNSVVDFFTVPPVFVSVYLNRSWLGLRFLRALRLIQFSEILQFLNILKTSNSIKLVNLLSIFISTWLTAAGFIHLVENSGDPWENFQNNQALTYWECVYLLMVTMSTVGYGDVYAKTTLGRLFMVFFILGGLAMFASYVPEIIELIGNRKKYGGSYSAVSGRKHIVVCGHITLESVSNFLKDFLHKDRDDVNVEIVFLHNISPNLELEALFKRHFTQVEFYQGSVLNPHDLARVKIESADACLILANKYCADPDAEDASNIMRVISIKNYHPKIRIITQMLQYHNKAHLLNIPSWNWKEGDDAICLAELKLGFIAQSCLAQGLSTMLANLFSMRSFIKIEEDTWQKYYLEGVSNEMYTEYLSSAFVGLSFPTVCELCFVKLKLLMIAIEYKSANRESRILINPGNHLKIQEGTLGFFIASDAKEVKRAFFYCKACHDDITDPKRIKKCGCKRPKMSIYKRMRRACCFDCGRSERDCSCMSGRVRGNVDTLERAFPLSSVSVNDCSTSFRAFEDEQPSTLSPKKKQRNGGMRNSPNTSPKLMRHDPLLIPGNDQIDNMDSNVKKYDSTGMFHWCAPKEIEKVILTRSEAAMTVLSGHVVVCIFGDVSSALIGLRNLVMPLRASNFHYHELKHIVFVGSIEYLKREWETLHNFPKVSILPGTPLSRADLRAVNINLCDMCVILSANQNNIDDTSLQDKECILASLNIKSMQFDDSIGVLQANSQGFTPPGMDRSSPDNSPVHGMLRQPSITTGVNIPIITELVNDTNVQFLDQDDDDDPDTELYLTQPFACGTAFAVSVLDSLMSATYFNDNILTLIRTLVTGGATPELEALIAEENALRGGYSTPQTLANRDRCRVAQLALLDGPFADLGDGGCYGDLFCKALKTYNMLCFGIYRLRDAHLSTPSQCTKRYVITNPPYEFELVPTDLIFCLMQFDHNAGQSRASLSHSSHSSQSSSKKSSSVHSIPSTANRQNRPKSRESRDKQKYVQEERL

For the compound `FC(F)(F)c1cc(NC(=S)Nc2ccc(Br)cc2-c2nnn[nH]2)cc(C(F)(F)F)c1` [Compound 1, 1-(3,5-Bis-trifluoromethyl-phenyl)-3-[4-bromo-2-(1H-tetrazol-5-yl)-phenyl]-thiourea], the “current activated by depolarisation (BK current)” value is “marked increase”.
